Columns and labels:
T84 cells = assay: In vitro efflux study on T84 cells; format: cell-based, human
Method: (§1) T84 cells were cultured as described in saturation binding experiments above.
Three minutes before the end of the incubation time, internalization was stopped on ice and the supernatant was removed. Each well was washed with 1 mL of ice-cold PBS. The membrane-bound fraction was retrieved in 2 mL sodium acetate buffer (20 mM, pH 5) for 2 min, each well was rinsed a second time with 1 mL ice-cold PBS and fresh culture medium was added. At each time point (10, 30, 60 and 120 minutes), the efflux was stopped by collecting the medium and washing cells twice with ice-cold PBS. Finally, cells were treated with NaOH (1 M). The radioactivity of the collected culture medium supernatant, the PBS wash fractions, and the total internalized fraction was measured in a gamma counter. The experiment was performed twice.

[1] = Hydrophilicity, water-octanol partition/distribution coefficient method; format: physicochemical; details: 1-octanol / phosphate-buffered saline pH 7.4
Method: Hydrophilicity of [^67Ga]Ga-AP747 was assessed by the water-octanol partition/distribution coefficient method. In a centrifuge tube, 500 μL of 1-octanol was added to 500 μL of phosphate-buffered saline (pH 7.4) containing the radiolabeled peptide (50 kBq). After equilibrium, the solution was vigorously stirred for 5 min at room temperature and subsequently centrifuged (4000 rpm, 5 min) to yield two immiscible layers. Aliquots of 100 μL were taken from each layer and the radioactivity in the samples was determined by a gamma counter (Perkin Elmer, Waltham, Mass., USA).

APJ receptor, T84 cells = biological target: T1, APJ receptor, T84 cells (Homo sapiens, UniProt P35414); assay: In vitro internalization study in T84 cells; format: cell-based
T1 construct: host or cells: T84 human colon adenocarcinoma cells
T1 sequence (P35414 1-380): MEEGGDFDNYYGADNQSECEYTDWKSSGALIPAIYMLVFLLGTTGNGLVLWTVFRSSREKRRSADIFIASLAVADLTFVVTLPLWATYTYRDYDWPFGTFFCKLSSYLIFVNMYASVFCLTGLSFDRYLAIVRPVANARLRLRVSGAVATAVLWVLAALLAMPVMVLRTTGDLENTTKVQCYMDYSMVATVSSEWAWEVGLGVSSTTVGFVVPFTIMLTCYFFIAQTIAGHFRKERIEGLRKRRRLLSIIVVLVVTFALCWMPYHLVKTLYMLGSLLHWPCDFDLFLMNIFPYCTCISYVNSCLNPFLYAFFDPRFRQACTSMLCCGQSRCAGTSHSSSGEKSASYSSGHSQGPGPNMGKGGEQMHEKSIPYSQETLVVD
Method: as §1
Three minutes before the end of the incubation time, internalization was stopped on ice and the supernatant was removed. Internalization was then stopped by eliminating the supernatant and each well was washed with 3×250 μL of ice-cold PBS. The membrane-bound fraction was retrieved in 2×250 μL sodium acetate buffer (20 mM, pH 5) for 5 min. Finally, cells were treated with 500 μL of NaOH (1 M). The radioactivity of the membrane-bound fraction and the internalized fraction was measured in a gamma counter. The experiment was performed twice. To also verify receptor specificity, blocking experiments were performed by using 1 μM of apelin-13.

[2] = tested on: Human colon adenocarcinoma xenografts (T84 cells); assay: MicroPET imaging in ectopic mouse model of human colon adenocarcinoma, baseline and blocking; format: in vivo, mice
Method: Human colon adenocarcinoma xenografts were established by subcutaneous injections of 1×10^6 T84 cells into 6-week-old male Swiss nude mice (Charles River) under 2% isoflurane anesthesia.
PET images were acquired 1 h after IV injection on a Mediso NanoPET/CT under 2% isoflurane anesthesia.

ischemic limb = assay: MicroPET imaging in mouse model of hindlimb ischemia; format: in vivo, mice
Method: Unilateral hindlimb ischemia was performed on 9-week-old male Swiss mice (Janvier Labs) after femoral artery excision under 2% isoflurane anesthesia. LASER Doppler perfusion imaging (Perimed, Craponne, France) was used to assess revascularization from day 0 to day 21 after surgery. Perfusion results are expressed as a ratio of ischemic to non-ischemic limb blood flow. Hindlimb ischemic damage was quantified on Days 1, 3, 7, 10, 13 and 21.
(§2) On hindlimb ischemia mouse model (n=8) and Matrigel mouse model (n=7) on day 1, 3, 7, 10, 13 and 21 post-surgery, mice were IV injected with 5-10 MBq of ^68Ga-NODAGA-Apelin13(F13A) under 2% isoflurane anesthesia.
(§3) PET images were acquired 60 min after IV injection on a Mediso Nanoscan PET/CT under 2% isoflurane anesthesia. On hindlimb ischemia mouse model and on day 1, 3, 7, 10, 13 and 21 post-surgery, mice were IV injected with 5-10 MBq of [^68Ga]Ga-NODAGA-RGD2 injection under 2% isoflurane anesthesia. PET images were acquired 60 min after IV injection on a Mediso Nanoscan PET/CT under 2% isoflurane anesthesia.
(§4) Quantitative region-of-interest (ROI) analysis of the PET images was performed on attenuation- and decay-corrected PET images using InVicro—VivoQuant software and tissue uptake values are presented as an ischemic muscle to contralateral muscle ratio and as a percentage of the injected dose per gram of tissue (% ID/g) which was determined by decay correction for each sample normalized to a standard of known weight, which was representative of the injected dose.

[3] = Stability of radiolabelled tracer in human serum; format: in vitro ADME
Method: Determination of radiochemical purity was done by radio-thin-layer chromatography (ITLC-SG) and was performed using a Ray-test miniGITA radio-TLC scanner detector (Straubenhardt, Ge) (eluents, 1:1 [v/v] mixture of 1M aqueous ammonium acetate solution and methanol and also in Trisodium Citrate 0,1M). Evaluation of ^68Ga-NODAGA-Apelin13(F13A) stability was performed in human serum at 60 and 120 min after radiosynthesis.

[4] = MicroPET biodistribution study in healthy mice; format: in vivo; details: IV injection, up to 2 h
Method: For biodistribution study in healthy mice (n=3), images were continuously acquired just after ^68Ga-NODAGA-Apelin13(F13A) IV injection with 5-6 MBq and recorded up to 2 h post injection on a Mediso NanoPET/CT under 2% isoflurane anesthesia.
as §4

Matrigel plug = assay: MicroPET imaging in Matrigel mouse model; format: in vivo, mice
Method: These mice were also subcutaneously implanted with Matrigel (Dutscher) supplemented with 10% fetal bovine serum under 2% isoflurane anesthesia.
as §2, §3, §4

APJ = biological target: T2, APJ (Homo sapiens, UniProt P35414); assay: Autoradiography with blocking strategy on T84 cells; format: cell-based; details: 100-fold excess of unconjugated Apelin13(F13A)
T2 construct: host or cells: T84 human colon adenocarcinoma cells
T2 sequence (P35414 1-380): T1 sequence (P35414 1-380)
Method: A blocking strategy was performed on cells expressing the highest level of APJ. This strategy consists in adding a large excess (100-fold) of unconjugated peptide (Apelin13(F13A)) before adding inventors' product of interest. Unspecific tracer was eliminated by several washes. The remaining activity, considered as specifically bound to the target, was evaluated by autoradiography.
T84 cell line (EuroBioDev) was cultivated in DMEM-F12/Glutamax medium complemented with 10% fetal bovine serum decomplemented and 1% antimycotic-antibiotic mix. Cell lines were maintained in a humidified 5% CO2 incubator at 37° C.

[5] = PET signal ratio on day 7, corrected with non-ischemic limb

[^67Ga]Ga-AP747: NODAGA-Apelin13(F13A) radiolabelled with gallium-67, used for in vitro binding, internalization and efflux studies
efflux: fraction of the total binding externalized (T84 cells; 10 minutes post-internalization): 66.7±1.7%
efflux: fraction of the total binding externalized (T84 cells; at 2 h): 81.2±2.9%
log D7.4 [1]: −3.03±0.02
internalized fraction of the cell associated radioactivity (maximum) (APJ receptor, T84 cells; 37° C., at 60 min): 79.7±7.3%
receptor specific membrane-bound fraction (APJ receptor, T84 cells; at any time point (10, 30, 60 min)): < 5%

CSCC[C@H](NC(=O)[C@@H]1CCCN1C(=O)CNC(=O)[C@H](CCCCN)NC(=O)[C@H](Cc1c[nH]cn1)NC(=O)[C@H](CO)NC(=O)[C@H](CC(C)C)NC(=O)[C@H](CCCNC(=N)N)NC(=O)[C@@H]1CCCN1C(=O)[C@H](CCCNC(=N)N)NC(=O)[C@@H](N)CCC(N)=O)C(=O)N1CCC[C@H]1C(=O)N[C@@H](C)C(=O)O [Apelin13(F13A), reference compound]
tolerance of cold peptide in in vivo blocking experiments ([2]; due to cardiovascular effects of Apelin): bad tolerance

[^68Ga]Ga-NODAGA-Apelin13(F13A): Apelin-13(F13A) peptide (SEQ ID NO: 5) conjugated to chelator NODAGA and radiolabelled with gallium-68; PET tracer of APJ
relation of PET signal in ischemic limb to day-input function (LASER Doppler Day7/Day0) (ischemic limb; PET signal on day 7, corrected with non-ischemic limb): not linked
correlation of PET signal in ischemic limb with LASER-Doppler signal at day of surgery (ischemic limb; [5]): significantly negatively correlated
relation of PET signal in ischemic limb to reperfusion (LASER-Doppler Day 21/Day 0) (ischemic limb; [5]): more important when reperfusion is longer
PET signal in ischemic limb compared with [68Ga]Ga-NODAGA-RGD2 (ischemic limb; at peak): notably better
day of peak PET signal in ischemic limb (ischemic limb; ischemic limb corrected by non-ischemic limb, post-surgery): 7 days
radiochemical purity after incubation in human serum ([3]; human serum, until two hours post-incubation, n=3): didn't lead to significant tampering
stability in serum ([3]; serum): up to 2 hours
partial blocking of PET signal in in vivo blocking experiments ([2]; pre-saturation with cold Apelin13(F13A), angiogenic and tumoral models): about 50%
excretion and organ accumulation (PET signal quantification in organs) ([4]; n=3): fast and mainly urinary excretion without noticeable accumulation in liver, lungs or brain
excretion and organ accumulation (PET signal quantification in organs) ([4]; n=3, listed as (F13A)Apelin-NODAGA-^68Ga): Rapid urinary and hepatic elimination
PET signal in Matrigel compared with [68Ga]Ga-NODAGA-RGD2, globally over experiment period (Matrigel plug; day 1 to day 21): significantly superior
accumulation in Matrigel plug compared with [68Ga]Ga-NODAGA-RGD2 (Matrigel plug; day 10, day 13 and day 21, PET 60 min after IV injection): significantly higher

AP747: AP747 corresponds to NODAGA-Apelin13(F13A); used radiolabelled in the autoradiography
remaining activity recorded by autoradiography in blocking condition compared to classic conditions (APJ): significantly reduced
